For this assay, the system named is Mycobacterium tuberculosis. Briefly: Antimycobacterial activity against Mycobacterium tuberculosis H37Ra. The format is functional.

Usually MIC stands for the lowest concentration that inhibits growth of the organism. The low end stands for a more susceptible organism, the high end for a less susceptible organism.

In brackets after ≈: the same amount, converted by molar mass. Some results are limits rather than exact numbers.

Take `CNc1ccccc1C(=O)O[C@@H]1[C@@H](C)[C@]2(O)[C@@H]3C=C(C)C(=O)[C@@H]3[C@H](O)C(C)=C[C@H]2[C@@H]2C(C)(C)[C@]12OC(C)=O`: the MIC is over 200 µg/mL. For `CNc1ccccc1C(=O)O[C@@H]1[C@@H](C)[C@]2(O)[C@@H]3C=C(C)C(=O)[C@H]3CC(C)=C[C@H]2[C@@H]2C(C)(C)[C@]12OC(C)=O` the value was 50 µg/mL (≈ 98.5 µM); for `CNc1ccccc1C(=O)O[C@@H]1[C@@H](C)[C@]2(O)[C@@H]3C=C(C)C(=O)[C@@H]3[C@H](O)C(CO)=C[C@H]2[C@@H]2C(C)(C)[C@]12OC(C)=O`, 25 µg/mL (≈ 46.3 µM); for `CNc1ccccc1C(=O)O[C@@H]1[C@@H](C)[C@]2(O)[C@@H]3C=C(C)C(=O)[C@@H]3CC(C)=C[C@H]2[C@@H]2C(C)(C)[C@]12OC(C)=O`, 200 µg/mL (≈ 394 µM). `CNc1ccccc1C(=O)O[C@@H]1[C@@H](C)[C@]2(O)[C@@H]3C=C(C)C(=O)[C@@H]3CC(CO)=C[C@H]2[C@@H]2C(C)(C)[C@]12OC(C)=O` registered an MIC of over 200 µg/mL. For `NNC(=O)c1ccncc1` [ISONIAZID] the value was 0.04 µg/mL (≈ 0.292 µM). The molecule `NC[C@H]1O[C@H](O[C@H]2[C@H](O)[C@@H](O[C@H]3O[C@H](CO)[C@@H](O)[C@H](N)[C@H]3O)[C@H](N)C[C@@H]2N)[C@H](O)[C@@H](O)[C@@H]1O.O=S(=O)(O)O` [KANAMYCIN SULFATE] gave an MIC of 2 µg/mL. To `CNc1ccccc1C(=O)O[C@@H]1[C@@H](C)[C@]2(O)[C@@H]3C=C(C)C(=O)[C@H]3CC(CO)=C[C@H]2[C@@H]2C(C)(C)[C@]12OC(C)=O` [SAPINTOXIN A] belongs 3.12 µg/mL (≈ 5.96 µM); to `CNc1ccccc1C(=O)O[C@@H]1[C@@H](C)[C@]2(O)[C@@H]3C=C(C)C(=O)[C@H]3[C@H](O)C(CO)=C[C@H]2[C@@H]2C(C)(C)[C@]12OC(C)=O` [SAPINTOXIN B], 12.5 µg/mL (≈ 23.2 µM); to `CNc1ccccc1C(=O)O[C@@H]1[C@@H](C)[C@]2(O)[C@@H]3C=C(C)C(=O)[C@H]3[C@H](O)C(C)=C[C@H]2[C@@H]2C(C)(C)[C@]12OC(C)=O` [SAPINTOXIN C], 25 µg/mL (≈ 47.7 µM).
